# Laboratory results as given in ChEMBL document CHEMBL3885881, “DrugMatrix”.
# Species: Rattus norvegicus
# Assay: DrugMatrix - Regimen: Daily Repeat
# Format: toxicity, organism-based, Sprague-Dawley
# Set-up: regimen Daily Repeat, gender Male, age 6-8 weeks
# Conditions: in vivo, po, route oral GAVAGE, vehicle 100 % WATER; for ABSOLUTE BASOPHIL / ABSOLUTE EOSINOPHIL / ABSOLUTE LYMPHOCYTE / ABSOLUTE MONOCYTE / ABSOLUTE SEGMENTED NEUTROPHIL / BASOPHIL / EOSINOPHIL / ERYTHROCYTE COUNT / HEMATOCRIT / HEMOGLOBIN / LEUKOCYTE COUNT / LYMPHOCYTE / MEAN CORPUSCULAR HEMOGLOBIN / MEAN CORPUSCULAR HEMOGLOBIN CONCENTRATION / MEAN CORPUSCULAR VOLUME / MONOCYTE / NEUTROPHIL / NUCLEATED RED BLOOD CELLS / PLATELET COUNT: tissue Blood; for ALANINE AMINOTRANSFERASE / ALBUMIN / ALKALINE PHOSPHATASE / ASPARTATE AMINOTRANSFERASE / BLOOD UREA NITROGEN / CARBON DIOXIDE / CHLORIDE / CHOLESTEROL / CREATINE PHOSPHOKINASE / CREATININE / GLUCOSE / LACTATE DEHYDROGENASE / LIPASE / PHOSPHORUS / POTASSIUM / SODIUM / TOTAL BILIRUBIN / TOTAL PROTEIN / URIC ACID: tissue Plasma
# [1] = 10 mg/kg, 120 h, dose level Low, time 5 day
# [2] = 280 mg/kg, 72 h, dose level High, time 3 day
# [3] = 280 mg/kg, 120 h, dose level High, time 5 day
smiles,measurement,setting,value
NNc1nncc2ccccc12 [HYDRALAZINE],ABSOLUTE BASOPHIL,[1],0 CELLS/uL
same,ABSOLUTE EOSINOPHIL,[1],0 CELLS/uL
same,ABSOLUTE LYMPHOCYTE,[1],12743.33 CELLS/uL
same,ABSOLUTE MONOCYTE,[1],327.33 CELLS/uL
same,ABSOLUTE SEGMENTED NEUTROPHIL,[1],1062.67 CELLS/uL
same,BASOPHIL,[1],0%
same,EOSINOPHIL,[1],0%
same,ERYTHROCYTE COUNT,[1],5.27 x10E6/uL
same,HEMATOCRIT,[1],32.27%
same,HEMOGLOBIN,[1],13.07 G/DL
same,LEUKOCYTE COUNT,[1],14.13 x10E3/uL
same,LYMPHOCYTE,[1],90%
same,MEAN CORPUSCULAR HEMOGLOBIN,[1],24.8 pg
same,MEAN CORPUSCULAR HEMOGLOBIN CONCENTRATION,[1],40.53 G/DL
same,MEAN CORPUSCULAR VOLUME,[1],61.17 fL
same,MONOCYTE,[1],2.33%
same,NEUTROPHIL,[1],7.67%
same,NUCLEATED RED BLOOD CELLS,[1],0 /100WBC
same,PLATELET COUNT,[1],1239 x10E3/uL
same,ALANINE AMINOTRANSFERASE,[1],50 u/L
same,ALBUMIN,[1],4.2 G/DL
same,ALKALINE PHOSPHATASE,[1],452.67 u/L
same,ASPARTATE AMINOTRANSFERASE,[1],79.67 u/L
same,BLOOD UREA NITROGEN,[1],16.33 mg/dL
same,CARBON DIOXIDE,[1],29.67 mmol/L
same,CHLORIDE,[1],100.33 MEQ/L
same,CHOLESTEROL,[1],68 mg/dL
same,CREATINE PHOSPHOKINASE,[1],219.67 u/L
same,CREATININE,[1],0.15 mg/dL
same,GLUCOSE,[1],131.33 mg/dL
same,LACTATE DEHYDROGENASE,[1],184 u/L
same,LIPASE,[1],11 u/L
same,PHOSPHORUS,[1],10.8 mg/dL
same,POTASSIUM,[1],5.91 MEQ/L
same,SODIUM,[1],142.03 MEQ/L
same,TOTAL BILIRUBIN,[1],0.13 mg/dL
same,TOTAL PROTEIN,[1],5.73 G/DL
same,URIC ACID,[1],1.13 mg/dL
same,ABSOLUTE BASOPHIL,[2],0 CELLS/uL
same,ABSOLUTE EOSINOPHIL,[2],0 CELLS/uL
same,ABSOLUTE LYMPHOCYTE,[2],9108 CELLS/uL
same,ABSOLUTE MONOCYTE,[2],0 CELLS/uL
same,ABSOLUTE SEGMENTED NEUTROPHIL,[2],792 CELLS/uL
same,BASOPHIL,[2],0%
same,EOSINOPHIL,[2],0%
same,ERYTHROCYTE COUNT,[2],5.62 x10E6/uL
same,HEMATOCRIT,[2],33.4%
same,HEMOGLOBIN,[2],13 G/DL
same,LEUKOCYTE COUNT,[2],9.9 x10E3/uL
same,LYMPHOCYTE,[2],92%
same,MEAN CORPUSCULAR HEMOGLOBIN,[2],23.1 pg
same,MEAN CORPUSCULAR HEMOGLOBIN CONCENTRATION,[2],38.9 G/DL
same,MEAN CORPUSCULAR VOLUME,[2],59.4 fL
same,MONOCYTE,[2],0%
same,NEUTROPHIL,[2],8%
same,NUCLEATED RED BLOOD CELLS,[2],0 /100WBC
same,PLATELET COUNT,[2],1418 x10E3/uL
same,ALANINE AMINOTRANSFERASE,[2],36 u/L
same,ALBUMIN,[2],4.1 G/DL
same,ALKALINE PHOSPHATASE,[2],257 u/L
same,ASPARTATE AMINOTRANSFERASE,[2],59 u/L
same,BLOOD UREA NITROGEN,[2],21 mg/dL
same,CARBON DIOXIDE,[2],32 mmol/L
same,CHLORIDE,[2],99 MEQ/L
same,CHOLESTEROL,[2],74 mg/dL
same,CREATINE PHOSPHOKINASE,[2],207 u/L
same,CREATININE,[2],0.14 mg/dL
same,GLUCOSE,[2],142 mg/dL
same,LACTATE DEHYDROGENASE,[2],151 u/L
same,LIPASE,[2],10 u/L
same,PHOSPHORUS,[2],10.8 mg/dL
same,POTASSIUM,[2],5.22 MEQ/L
same,SODIUM,[2],139.9 MEQ/L
same,TOTAL BILIRUBIN,[2],0.1 mg/dL
same,TOTAL PROTEIN,[2],5.4 G/DL
same,URIC ACID,[2],1.3 mg/dL
same,ABSOLUTE BASOPHIL,[3],0 CELLS/uL
same,ABSOLUTE EOSINOPHIL,[3],0 CELLS/uL
same,ABSOLUTE LYMPHOCYTE,[3],8493.67 CELLS/uL
same,ABSOLUTE MONOCYTE,[3],293 CELLS/uL
same,ABSOLUTE SEGMENTED NEUTROPHIL,[3],980 CELLS/uL
same,BASOPHIL,[3],0%
same,EOSINOPHIL,[3],0%
same,ERYTHROCYTE COUNT,[3],5.59 x10E6/uL
same,HEMATOCRIT,[3],33.5%
same,HEMOGLOBIN,[3],13.07 G/DL
same,LEUKOCYTE COUNT,[3],9.77 x10E3/uL
same,LYMPHOCYTE,[3],87.67%
same,MEAN CORPUSCULAR HEMOGLOBIN,[3],23.37 pg
same,MEAN CORPUSCULAR HEMOGLOBIN CONCENTRATION,[3],39 G/DL
same,MEAN CORPUSCULAR VOLUME,[3],59.97 fL
same,MONOCYTE,[3],3%
same,NEUTROPHIL,[3],9.33%
same,NUCLEATED RED BLOOD CELLS,[3],0 /100WBC
same,PLATELET COUNT,[3],1213 x10E3/uL
same,ALANINE AMINOTRANSFERASE,[3],40.33 u/L
same,ALBUMIN,[3],4.2 G/DL
same,ALKALINE PHOSPHATASE,[3],309.67 u/L
same,ASPARTATE AMINOTRANSFERASE,[3],58.67 u/L
same,BLOOD UREA NITROGEN,[3],18.33 mg/dL
same,CARBON DIOXIDE,[3],25.67 mmol/L
same,CHLORIDE,[3],101 MEQ/L
same,CHOLESTEROL,[3],65.33 mg/dL
same,CREATINE PHOSPHOKINASE,[3],302.33 u/L
same,CREATININE,[3],0.16 mg/dL
same,GLUCOSE,[3],143 mg/dL
same,LACTATE DEHYDROGENASE,[3],125 u/L
same,LIPASE,[3],11.33 u/L
same,PHOSPHORUS,[3],10.47 mg/dL
same,POTASSIUM,[3],5.72 MEQ/L
same,SODIUM,[3],140.6 MEQ/L
same,TOTAL BILIRUBIN,[3],0.17 mg/dL
same,TOTAL PROTEIN,[3],5.47 G/DL
same,URIC ACID,[3],1.43 mg/dL
